The text below walks through data of ChEMBL document CHEMBL2150997, “Profiling of a prescription drug library for potential renal drug-drug interactions mediated by the organic cation transporter 2” (J Med Chem, 2011).

The structures appear in SMILES notation.

The nature of data set [1]: Cmax in human. The note with it: in vivo. It is filed as ADME, organism-based.
Data set [2] has as its target T1, Multidrug and toxin extrusion protein 2 (Homo sapiens, UniProt Q86VL8).
T1 sequence (Q86VL8 whole entry): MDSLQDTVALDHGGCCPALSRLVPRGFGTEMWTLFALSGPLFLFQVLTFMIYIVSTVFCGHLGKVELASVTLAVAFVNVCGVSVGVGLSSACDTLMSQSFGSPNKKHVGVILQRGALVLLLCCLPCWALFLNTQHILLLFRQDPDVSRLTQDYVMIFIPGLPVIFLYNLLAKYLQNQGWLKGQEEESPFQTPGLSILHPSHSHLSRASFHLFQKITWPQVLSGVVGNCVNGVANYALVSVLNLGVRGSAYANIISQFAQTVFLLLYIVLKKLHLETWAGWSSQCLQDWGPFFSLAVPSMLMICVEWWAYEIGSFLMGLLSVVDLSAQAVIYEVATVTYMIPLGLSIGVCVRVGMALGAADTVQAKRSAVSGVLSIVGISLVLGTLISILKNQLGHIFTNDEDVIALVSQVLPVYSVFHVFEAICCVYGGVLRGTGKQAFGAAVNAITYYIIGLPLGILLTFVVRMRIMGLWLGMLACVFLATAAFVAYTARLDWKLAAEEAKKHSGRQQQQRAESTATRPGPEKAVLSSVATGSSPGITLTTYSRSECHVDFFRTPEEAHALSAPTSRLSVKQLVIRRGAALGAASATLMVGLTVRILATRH
Description: Inhibition of human MATE2-K expressed in HEK-293-Flp-In cells incubated for 3 mins by ASP+ substrate uptake assay

Data set [3] can be described thus: Protein binding in human plasma. The note with it: read-out: PPB (converted). Format: ADME, cell-free.
Data set [4] deals with T2, Solute carrier family 22 member 1 (Homo sapiens, UniProt O15245).
T2 sequence (O15245 whole entry): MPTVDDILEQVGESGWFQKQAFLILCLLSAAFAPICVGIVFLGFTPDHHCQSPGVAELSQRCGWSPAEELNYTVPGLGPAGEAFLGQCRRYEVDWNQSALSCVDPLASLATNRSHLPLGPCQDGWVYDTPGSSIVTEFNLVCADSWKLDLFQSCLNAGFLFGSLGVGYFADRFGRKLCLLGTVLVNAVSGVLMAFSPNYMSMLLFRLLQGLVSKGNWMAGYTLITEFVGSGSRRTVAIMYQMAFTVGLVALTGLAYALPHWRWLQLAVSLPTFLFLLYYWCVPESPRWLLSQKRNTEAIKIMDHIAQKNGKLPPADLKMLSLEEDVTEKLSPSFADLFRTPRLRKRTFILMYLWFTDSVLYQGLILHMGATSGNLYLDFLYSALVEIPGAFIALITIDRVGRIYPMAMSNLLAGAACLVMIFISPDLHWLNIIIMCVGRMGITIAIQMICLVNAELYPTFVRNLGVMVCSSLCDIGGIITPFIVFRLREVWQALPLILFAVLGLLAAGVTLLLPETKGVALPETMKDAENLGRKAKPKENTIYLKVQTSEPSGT
It is filed as ADME, cell-based.
Description: Inhibition of human OCT1 expressed in HEK-293-Flp-In cells incubated for 3 mins by ASP+ substrate uptake assay

In data set [5] the target is T3, Solute carrier family 22 member 2 (Homo sapiens, UniProt O15244).
T3 sequence (O15244 whole entry): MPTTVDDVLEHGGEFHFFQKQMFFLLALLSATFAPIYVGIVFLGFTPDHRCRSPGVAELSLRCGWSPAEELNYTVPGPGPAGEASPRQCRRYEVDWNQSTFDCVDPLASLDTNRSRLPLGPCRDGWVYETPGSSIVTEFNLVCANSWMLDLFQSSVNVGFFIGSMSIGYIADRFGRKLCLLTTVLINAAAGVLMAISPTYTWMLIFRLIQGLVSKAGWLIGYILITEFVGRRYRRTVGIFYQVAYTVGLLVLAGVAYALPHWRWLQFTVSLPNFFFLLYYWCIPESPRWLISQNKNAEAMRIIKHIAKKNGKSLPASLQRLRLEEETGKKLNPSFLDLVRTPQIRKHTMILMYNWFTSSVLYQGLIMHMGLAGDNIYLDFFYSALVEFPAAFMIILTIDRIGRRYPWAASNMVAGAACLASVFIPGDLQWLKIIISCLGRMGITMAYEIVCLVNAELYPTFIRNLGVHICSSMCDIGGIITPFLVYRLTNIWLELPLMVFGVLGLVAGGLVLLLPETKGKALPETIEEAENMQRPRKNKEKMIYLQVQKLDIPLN
Format: ADME, cell-based.
Description: Inhibition of human OCT2 expressed in HEK-293-Flp-In cells incubated for 3 mins by ASP+ substrate uptake assay

Another data set is described as follows: cells. As to conditions: Homo sapiens, 0.05 h.
The target of data set [6] is T4, Multidrug and toxin extrusion protein 1 (Homo sapiens, UniProt Q96FL8).
T4 sequence (Q96FL8 whole entry): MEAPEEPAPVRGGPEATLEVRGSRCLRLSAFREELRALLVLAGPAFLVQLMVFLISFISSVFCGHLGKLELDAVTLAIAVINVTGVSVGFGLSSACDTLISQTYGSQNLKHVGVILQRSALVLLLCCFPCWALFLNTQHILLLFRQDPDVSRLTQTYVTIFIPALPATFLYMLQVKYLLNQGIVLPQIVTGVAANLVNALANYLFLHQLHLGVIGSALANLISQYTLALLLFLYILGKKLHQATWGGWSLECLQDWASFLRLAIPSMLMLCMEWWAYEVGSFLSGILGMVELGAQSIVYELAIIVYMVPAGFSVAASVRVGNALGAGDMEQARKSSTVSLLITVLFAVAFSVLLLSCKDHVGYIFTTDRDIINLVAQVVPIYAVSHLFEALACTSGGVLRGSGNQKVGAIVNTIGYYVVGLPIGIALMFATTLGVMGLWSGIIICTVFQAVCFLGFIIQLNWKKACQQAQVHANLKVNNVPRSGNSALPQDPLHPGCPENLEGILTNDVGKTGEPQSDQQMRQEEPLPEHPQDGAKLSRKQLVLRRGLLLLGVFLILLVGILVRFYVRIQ
Description: Inhibition of human MATE1 expressed in HEK-293-Flp-In cells incubated for 3 mins by ASP+ substrate uptake assay

Description for cells: Inhibition of human OCT2 A270S mutant expressed in HEK-293-Flp-In cells incubated for 3 mins by ASP+ substrate uptake assay

As usually defined, the Cmax is the highest concentration seen after dosing. As a reminder, the IC50 is the concentration that inhibits the measured activity by half. `CN/C(=N\CCSCc1nc[nH]c1C)NC#N` [CIMETIDINE] registered a Cmax in data set [1] of 11.9 µM. The IC50 in data set [2] is 39 µM; in data set [4], more than 100 µM; in data set [5], 23 µM; in the data set “cells”, 20 µM. The fraction unbound in data set [3] is 0.81.

`OCCN(CCO)c1nc(N2CCCCC2)c2nc(N(CCO)CCO)nc(N3CCCCC3)c2n1` [DIPYRIDAMOLE] returned an IC50 in data set [4] of 81 µM.

Regarding `CC(C)N(CCC(C(N)=O)(c1ccccc1)c1ccccn1)C(C)C` (centres undefined) [DISOPYRAMIDE], the 50% inhibitory concentration (IC50) in data set [2] is more than 100 µM; in data set [6], 66 µM. The fraction unbound in data set [3] was 0.5.

With `CN(C)CCCN1c2ccccc2CCc2ccccc21` [IMIPRAMINE], the half-maximal inhibitory concentration (IC50) is more than 100 µM in data set [2], 37 µM in data set [4] and 10 µM in data set [6]. In data set [3], the fraction unbound is 0.1.

With `Cc1nccn1CC1CCc2c(c3ccccc3n2C)C1=O` (centres undefined) [ONDANSETRON], the highest level in data set [1] (Cmax) was 0.13 µM. Further, in data set [4], the IC50 was more than 100 µM.

With `Nc1c2c(nc3ccccc13)CCCC2` [TACRINE], the 50% inhibitory concentration (IC50) in data set [2] was more than 100 µM; in data set [4], 83 µM. Further, in data set [3], the fraction unbound is 0.45.
